Data: patent US6632798B2, “Methods for inhibiting angiogenesis” (Antigen Biologicals Corporation, priority 2001, dated 2003)
Marks after values point to notes of the source that are not given here.

Legend:
[1] = test system: induced blood vasculature of the adult mouse ear; assay: adult mouse ear model, blood vessel growth induced by sodium hydroxide burn; format: in vivo; conditions: 0.025 grams in 0.25 ml PBS intraperitoneally once a day, 3 days before and 3 days after NaOH burn, FIG. 7
Source text: This example illustrates the anti-angiogenic properties of Oleuropein in the adult mouse ear model. The endpoint of the adult mouse ear model assay was a direct visualization of the number of branch points and ends of blood vessels. Such visualization would illustrate the complexity of the blood vasculature in the adult mouse ear. The decrease in the complexity of the induced blood vasculature of the adult mouse ear as a result of the application of Oleuropein would indicate its anti-angiogenic properties.
In the previous model (the CAM in the developing chick embryo), although an excellent in vivo system for studying angiogenesis, because there is ongoing new blood vessel growth in the growing embryo, we tested another model in assessing whether Oleuropein can inhibit induced blood vessel growth in an adult mammal. The model we chose to use was the adult mouse ear. The mouse ear is vascularized and is thin enough to be directly visualized by a light microscope. If a stimulus is applied to the adult mouse ear existing blood vessels are capable of sprouting new ones (angiogenesis). Using this model anti-angiogenic compounds can be tested for their effects. We applied a sodium hydroxide burn, which stimulated the existing blood vessels in the adult mouse ear to sprout new blood vessels. […]

[2] = test system: blood vessels in the chick chorioallantoic membrane (CAM); assay: chick chorioallantoic membrane (CAM) assay, injection into the yolk sac; format: in vivo, chick embryo; conditions: for Number Nodes + Ends (mean ± S.E.): control 271 ± 25, P < 0.0001 vs control
Source text: Compounds suitable for use in the methods of the present invention can readily be identified using in vitro and in vivo screening assays. Such assays may screen for the ability of a particular compound to inhibit angiogenesis or the vascularization of endothelial cells in vitro and in vivo. For instance, the chick embryo chorioallantoic membrane (CAM) assay, which is described in more detail below, can be used to screen a given compound for its ability to inhibit vascularization. In the chorioallantoic membrane assay as performed in this invention, fertilized chick embryos are injected with a compound on day 3 or 4. The embryos are then allowed to develop for […] post injection upon which the shell is cracked and the chorioallantoic membrane is photographed. Based on the number of blood vessel nodes and ends present in the CAM the complexity of vascularization can be assessed. This assay can be used to assess the anti-angeogenic properties of the compounds in this invention. It will be readily apparent to those skilled in the art that the compounds in this invention can be administered alone, in the form of a pharmaceutically acceptable salt and/or in the form of a pharmaceutical composition. This example illustrates the anti-angiogenic properties of Oleuropein in the chick chorioallantoic membrane assay (CAM). The endpoint of the CAM assay was a quantitative determination of the number of branch points and ends of blood vessels in the chorioallantoic membrane. Such a quantitation would illustrate the complexity of the blood vasculature in the developing chorioallantoic membrane. The decrease in the complexity of the blood vasculature of the chorioallantoic membrane as a result of the application of Oleuropein indicates its anti-angiogenic properties. The CAM in the developing chick embryo is an excellent in vivo system for studying angiogenesis, because there is ongoing new blood vessel growth. The CAM assay involves the monotering of the blood vasculature of the developing chorioallantoic membrane of live chick embryos. Various CAM assay approaches have been developed. These include the culturing of live chick embryos in Petri dishes under special sterile conditions. Another approach has been to cut a window in the shell of fertilized eggs and directly apply the compound to be studied in the window using a filter paper. We used a modified approach to the CAM assay, which includes a less invasive method for introducing the compound Oleuropein. Fertilized chicken eggs where candled on the third day of development. The blood vasculature and the yolk were identified. A small 1 mm hole was made in the shell. A small gauge needle carrying 0.4 ml of Oleuropein diluted in saline/water was injected directly into the yolk sac. The hole was taped and the eggs were returned to the incubator for further development. After 3 days the eggs were removed and cracked in a white dish and the chorioallantoic membrane was photographed. Control eggs were injected with saline/water. Fresh fertile eggs were incubated for three days in a standard egg incubator. Temperature and humidity were kept constant at 100° F. and 65% respectively. On Day 3, eggs were […] using a police flash light. Embryo and yolk were identified. The surface of the shell was cleaned with an alcohol swab. The egg shell was pierced with a lancet making a 1 millimeter hole. A needle was used to withdraw 0.5 ml of yolk. A 0.5 ml injection was administered directly into the yolk sack. […] Experimental eggs were injected with a 0.1% and 1.0% concentration of Oleuropein. Control eggs were injected with an equivalent amount of water. After injection the hole was covered with a small piece of scotch tape and the eggs were returned to the incubator for further development. On day 3 post injection the eggs were removed from the incubator and […]. They were cracked gently using a butter knife over a white dish. Embryo and CAM were carefully layed out for observation and photography. […]

[3] = Oleuropein treated eggs, FIG. 5

Question: How did the “inhibition of induced blood vessel growth in the ear (photographs)” value [1] turn out when `C/C=C1/[C@H](O[C@@H]2O[C@H](CO)[C@@H](O)[C@H](O)[C@H]2O)OC=C(C(=O)OC)[C@H]1CC(=O)OCCc1ccc(O)c(O)c1` [Oleuropein] was run?
Answer: potently inhibited existing blood vessels from sprouting

Question: And the “effect on CAM vasculature (photographs)” value ([2]; 0.93 μmol/egg, FIG. 2 vs control FIG. 3)?
Answer: potently inhibited CAM vasculature

Question: What about the “% Inhibition of blood vessel growth compared to control” value ([2]; 0.93 μmole/egg) of the same compound?
Answer: 73%

Question: What about the “Number Nodes + Ends (mean ± S.E.)” value ([2]; 0.93 μmole/egg into yolk sac of three-day-old chick embryos) of the same compound?
Answer: 72 ± 11^b

Question: What about the “effect on CAM vasculature (photographs)” value ([2]; 9.3 μmol/egg, FIG. 1 vs control FIG. 3) of the same compound?
Answer: number of blood vessels is greatly diminished and branching is less complex than in controls

Question: And the “% Inhibition of blood vessel growth compared to control” value ([2]; 9.3 μmole/egg)?
Answer: 84%

Question: And the “Number Nodes + Ends (mean ± S.E.)” value ([2]; 9.3 μmole/egg into yolk sac of three-day-old chick embryos)?
Answer: 44 ± 5.3^a

Question: What about the “CAM diameter, smaller than control CAM” value [2, 3] of the same compound?
Answer: about 50%

Question: What about the “embryo size, smaller than untreated control embryos” value [2, 3] of the same compound?
Answer: about 60%

Question: And the embryo viability ([2]; higher dose of Oleuropein)?
Answer: did not effect embryo viability
